Results published in ChEMBL document CHEMBL1136276, “Alpha-fluoro-substituted thalidomide analogues” (Bioorg Med Chem Lett, 2003).

Columns and labels:
[1] = Inhibition of TNF-alpha production in LPS stimulated human PBMC at 360 uM; type: functional
[2] = Inhibition of TNF-alpha production in LPS stimulated human PBMC; type: functional

IC50 [2] [µM]	Structure (SMILES)	inhibition at 360 µM [1] [%]
–	O=C1CCC(F)(N2C(=O)c3ccccc3C2=O)C(=O)N1 (stereo not drawn)	80
0.23	Nc1cccc2c1C(=O)N(C1(F)CCC(=O)NC1=O)C2=O (stereo not drawn)	–
0.23	Nc1cccc2c1C(=O)N(C1CCC(=O)NC1=O)C2=O (stereo not drawn) [POMALIDOMIDE]	–
